Results as given in EPA's ToxValDB 9.5.

Tested on: Rattus norvegicus
Conditions: oral
[1] = short-term, duration: 28 days, gavage, F, Sprague-Dawley, Clinical Observation: Salivation + Hematology: Hgb decrease, Hct decrease + Blood Chemistry: Bil increase, Bil increase(trend)gamma-GTP …
[2] = short-term, duration: 28 days, gavage, M, Sprague-Dawley, Clinical Observation: Salivation + Hematology: Hgb decrease, Hct decrease + Blood Chemistry: Bil increase, Bil increase(trend)gamma-GTP …
[3] = short-term, duration: 28 days, gavage, M, Sprague-Dawley, Clinical Observation: Yellow-orange urine Soft stool DiarrheaSalivation + Body Weight Changes: decrease + Food Consumption: decrease + …

Question: With `O=N[O-].[Na+]` [Sodium nitrite] as the compound, how does the NOEL (chronic, duration: 14 weeks, water, F, Fischer 344, Deaths + Clinical Observation: Brown discoloration in eyes Cyanosis Hypoactive Alopecia + Body Weight Changes: decrease + Water Consumption…) read?
Answer: The NOEL was under 40 mg/kg-day.

Question: And the NOEL (chronic, duration: 14 weeks, water, M/F, Fischer 344, Deaths + Clinical Observation: Brown discoloration in eyes Cyanosis Hypoactive Alopecia + Body Weight Changes: decrease + Water Consumption…)?
Answer: The NOEL was under 83.6 mg/kg-day.

Question: `CCCCC(CC)(CO)CO` [2-Butyl-2-ethyl-1,3-propanediol] was tested. Which NOAEL (subchronic, gavage, M, Sprague-Dawley, Clinical Observation: Staggering gait + Water Consumption: increase + Urinalysis: pH decrease + Hematology: LYMPH increase, NEUT decrease + …) did it give?
Answer: The NOAEL was 20 mg/kg-day.

Question: `CCCC[B-](c1ccccc1)(c1ccccc1)c1ccccc1.CCCC[N+](CCCC)(CCCC)CCCC` [Tetrabutylammonium butyltriphenylborate] was tested. Which NOEL (short-term, duration: 28 days, gavage, M/F, Blood Chemistry: GPT increase, CHE decrease + Histopathology: Thymus-Proliferation, histiocyte Thymus-Atrophy Adrenal-Decreased lipoid) did it give?
Answer: Its NOEL is under 3 mg/kg-day.

Question: How did the NOEL (subchronic, gavage, M/F, Fischer 344, Deaths + Clinical Observation: Tremors Wasting Bluish discoloration of genital and footpad regions + Body Weight Changes: decrease + …) turn out when `Nc1ccccc1Cl` [2-Chloroaniline] was run?
Answer: Its NOEL is under 10 mg/kg-day.

Question: With `COc1c(Cl)c(Cl)c(Cl)c(Cl)c1Cl` [Pentachloroanisole] as the compound, how does the NOEL (subchronic, duration: 13 weeks, gavage, M/F, Fischer 344, Deaths + Clinical Observation: Labored respiration + Body Weight Changes: decrease + Blood Chemistry: Ch E decrease + Absolute Organ Weight…) read?
Answer: Its NOEL is under 40 mg/kg-day.

Question: `CCCCCCOCCOCCO` [2-[2-(Hexyloxy)ethoxy]ethanol] was tested. Which NOAEL (subchronic, duration: 53 days, diet, M, SD(CD), Body Weight Changes: Mean body weight decrease + Food Consumption: decrease + Urinalysis: pH decrease + Relative Organ Weight: Liver …) did it give?
Answer: The NOAEL was 300 mg/kg-day.

Question: For `CCCCC(CC)COP(=O)(O)CC(CC)CCCC` (stereo unspecified) [Phosphonic acid, P-(2-ethylhexyl)-, mono(2-ethylhexyl) ester], which NOEL (subchronic, gavage, M, Sprague-Dawley, Hematology: Hgb decrease, Hct decrease + Blood Chemistry: Alb increase, A/G increase + Absolute Organ Weight: Liver increase + Relative …) is on record?
Answer: The NOEL was 30 mg/kg-day.

Question: With `OCC1CO1` (stereo unspecified) [Glycidol] as the compound, how does the NOEL (subchronic, duration: 13 weeks, gavage, M/F, Fischer 344, Deaths + Body Weight Changes: decrease + Absolute Organ Weight: -- + Histopathology: Brain /cerebellum-Necrosis Brain-Demyelination Kidney-…) read?
Answer: The NOEL was under 25 mg/kg-day.

Question: With `CCCCCl` [1-Chlorobutane] as the compound, how does the NOEL (subchronic, duration: 13 weeks, gavage, M/F, Fischer 344, Deaths + Clinical Observation: Convulsion + Body Weight Changes: decrease + Histopathology: Spleen-Extramedullary hematopoiesis) read?
Answer: The NOEL was 60 mg/kg-day.

Question: For `O=C(O)[C@H]1CCCC[C@H]1C(=O)O` [cis-1,2-Cyclohexanedicarboxylic acid], which NOEL (subchronic, gavage, M, Sprague-Dawley, Deaths + Clinical Observation: Dead (4/12)Soiled perigenitalia of urine + Hematology: WBC increase, Neutrophils(%) increase, Lymphocytes(%) …) is on record?
Answer: Its NOEL is 300 mg/kg-day.

Question: With `CCC1CCCCC1` [Ethylcyclohexane] as the compound, how does the LOEL [1] read?
Answer: The LOEL was 200 mg/kg-day.

Question: What about the NOEL [1] of the same compound?
Answer: The NOEL was 40 mg/kg-day.

Question: And the LOEL [2]?
Answer: The LOEL was 200 mg/kg-day.

Question: And the NOEL [2]?
Answer: Its NOEL is 40 mg/kg-day.

Question: With `COCCC(=O)OC` [Methyl 3-methoxypropionate] as the compound, how does the NOEL (subchronic, duration: 42 days, gavage, M, Sprague-Dawley, Clinical Observation: Salivation + Food Consumption: decrease + Urinalysis: Volume increasep H decrease + Hematology: Mono increase + Blood …) read?
Answer: Its NOEL is 62.5 mg/kg-day.

Question: For `C=CCOC(=O)c1ccccc1-c1ccccc1C(=O)OCC=C`, which NOEL (short-term, duration: 28 days, gavage, M/F, Clinical Observation: Salivation + Hematology: APTT increase, PT increase + Blood Chemistry: GOT increase, GPT increase, gamma-GTP increase…) is on record?
Answer: Its NOEL is 6 mg/kg-day.

Question: Which NOEL (subchronic, gavage, M, Sprague-Dawley, Relative Organ Weight: Thymus decrease + Histopathology: Stomach/forestomach- Squamous cell hyperplasia Stomach/forestomach -inflammatory …) does the source give for `O=[N+]([O-])c1ccc(Cl)c([N+](=O)[O-])c1` [1-Chloro-2,4-dinitrobenzene] here?
Answer: The NOEL was 1 mg/kg-day.

Question: With `CCC(Cl)C(Cl)C(Cl)CC(Cl)C(Cl)C(C)Cl` (stereo unspecified) [C10-12 chloroalkanes] as the compound, how does the NOEL (subchronic, duration: 13 weeks, gavage, M/F, Fischer 344, Clinical Observation: Inactive + Body Weight Changes: decrease + Relative Organ Weight: Liver increase + Histopathology: Liver-Hypertrophy, …) read?
Answer: Its NOEL is under 313 mg/kg-day.

Question: Which NOAEL (chronic, duration: 14 weeks, gavage, M/F, Fischer 344, Clinical Observation: Lethargy + Body Weight Changes: Mean body weight decrease, Body weight gain decrease + Hematology: WBC decrease, SEG …) does the source give for `CCCCC/C=C/C=C/C=O` [(E,E)-2,4-Decadienal] here?
Answer: Its NOAEL is 100 mg/kg-day.

Question: `O=C(O)CCCN1CCC(O[C@@H](c2ccc(Cl)cc2)c2ccccn2)CC1.O=S(=O)(O)c1ccccc1` [Bepotastine besylate] was tested. Which NOAEL (short-term, duration: 28 days, gavage, M/F, CD, Clinical Observation: Mydriasis Salivation Soiled perineal region + Body Weight Changes: decrease + Food Consumption: decrease + Urinalysis…) did it give?
Answer: Its NOAEL is 100 mg/kg-day.

Question: What does the source list for `Nc1cc([N+](=O)[O-])ccc1O` [2-Amino-4-nitrophenol]?
Answer: NOAEL [3]: < 150 mg/kg-day; NOEL [3]: < 150 mg/kg-day; NOEL (subchronic, duration: 13 weeks, gavage, M/F, Fischer 344, Deaths + Body Weight Changes: decrease + Absolute Organ Weight: Liver increase + Relative Organ Weight: Liver increase + Histopathology: …): 125 mg/kg-day

Question: With `NC(=O)c1cccnc1` [Niacinamide] as the compound, how does the NOAEL (short-term, duration: 28 days, gavage, M/F, Wistar, Body Weight Changes: decrease + Food Consumption: decrease + Blood Chemistry: AST increase, ALT increase, T-Cho increase, ALP increase, BUN …) read?
Answer: The NOAEL was 215 mg/kg-day.

Question: For `COC(=O)CCCC(=O)OC` [Dimethyl glutarate], which NOAEL (subchronic, duration: 42 days, gavage, M, CD(SD), Urinalysis: pH decrease(trend) + Histopathology: Stomach-Hyperplasia, squamous, limiting ledge) is on record?
Answer: Its NOAEL is 300 mg/kg-day.
